Like-named read-outs stand apart in the source and are kept apart here.
Columns and labels:
[1] = type: physicochemical; conditions: SGF with pepsin, pH 1.5, 37° C.; for Condition 1 Conversion (%), first value of pair x/y: first of two values; for Condition 1 Conversion (%), second value of pair x/y: second of two values; for Condition 1 Conversion (%): 0.5 mM
[2] = type: physicochemical; conditions: DI water, 25° C., 0.5 mM

Row | SMILES | Condition 1 Conversion (%), first value of pair x/y ([1]; time 30 min) [%] | Condition 1 Conversion (%), second value of pair x/y ([1]; time 30 min) [%] | Condition 1 Conversion (%), first value of pair x/y ([1]; time 1 h) [%] | Condition 1 Conversion (%), second value of pair x/y ([1]; time 1 h) [%] | Condition 1 Conversion (%), first value of pair x/y ([1]; time 4 h) [%] | Condition 1 Conversion (%), second value of pair x/y ([1]; time 4 h) [%] | Condition 1 Conversion (%), first value of pair x/y ([1]; time 24 h) [%] | Condition 1 Conversion (%), second value of pair x/y ([1]; time 24 h) [%] | Condition 2 Conversion (%) ([2]; time 1 min) | Condition 2 Conversion (%) ([2]; time 5 min) | Condition 2 Conversion (%) ([2]; time 30 min) | Condition 2 Conversion (%) ([2]; time 1 h) | Condition 2 Conversion (%) ([2]; time 4 h) | Condition 2 Conversion (%) ([2]; time 24 h) | Condition 1 Conversion (%) ([1]; time 1 min) | Condition 1 Conversion (%) ([1]; time 5 min) | Condition 1 Conversion (%) ([1]; time 30 min) | Condition 1 Conversion (%) ([1]; time 1 h) | Condition 1 Conversion (%) ([1]; time 4 h) | Condition 1 Conversion (%) ([1]; time 24 h) | other results
1 | COc1ccc([C@@]23CC/C(=N\OC(C)(C)OC)C[C@@H]2N(C)CC3)cc1OC [Compound 204, (E,3aS,7aS)-3a-(3,4-dimethoxyphenyl)-N-(1-methoxy-1-methyl-ethoxy)-1-methyl-2,3,4,5,7,7a-hexahydroindol-6-imine] | 0 | 100 | 0 | 100 | 0 | 100 | 0 | 100 | 0 | 0 | 0 | 0 | 0 | 0 | – | – | – | – | – | – | Condition 1 Conversion (%), first value of pair x/y ([1]; time 1 min): 100%; Condition 1 Conversion (%), second value of pair x/y ([1]; time 1 min): 0%; Condition 1 Conversion (%), first value of pair x/y ([1]; time 5 min): 100%; Condition 1 Conversion (%), second value of pair x/y ([1]; time 5 min): 0%
2 | COc1ccc([C@@]23CCC(=NOCC4CC4)C[C@@H]2N(C)CC3)cc1OC [Compound 205, (3aS,7aS)-N-(cyclopropylmethoxy)-3a-(3,4-dimethoxyphenyl)-1-methyl-2,3,4,5,7,7a-hexahydroindol-6-imine] | – | – | – | – | – | – | – | – | 0 | 0 | 0 | 0 | 0 | 0 | 0 | 0 | 4.5 | 9.4 | 16.7 | 19.3 | –
3 | COc1ccc([C@@]23CCC(=NOC4CCCCO4)C[C@@H]2N(C)CC3)cc1OC (stereo partly drawn) [Compound 206, (3aS,7aS)-3a-(3,4-dimethoxyphenyl)-1-methyl-N-tetrahydropyran-2-yloxy-2,3,4,5,7,7a-hexahydroindol-6-imine] | 1.41 | 0 | 7.83 | 2.57 | 0 | 77.75 | 0 | 100 | 0 | 0 | 0 | 0 | 0 | 0 | 0 | 0 | – | – | – | – | –
4 | COc1ccc([C@@]23CCC(=NOc4ccccc4)C[C@@H]2N(C)CC3)cc1OC [Compound 207, (3aS,7aS)-3a-(3,4-dimethoxyphenyl)-1-methyl-N-phenoxy-2,3,4,5,7,7a-hexahydroindol-6-imine] | – | – | – | – | – | – | – | – | 0 | 0 | 0 | 0 | 0 | 0 | 0 | 0 | 0 | 0 | 1.5 | 7.9 | –
5 | COc1ccc([C@@]23CCC(=NOCc4ccccc4)C[C@@H]2N(C)CC3)cc1OC [Compound 208, (3aS,7aS)-N-benzyloxy-3a-(3,4-dimethoxyphenyl)-1-methyl-2,3,4,5,7,7a-hexahydroindol-6-imine] | – | – | – | – | – | – | – | – | 0 | 0 | 0 | 0 | 0 | 0 | 0 | 0 | 0 | 0 | 11.5 | 12 | –
